Article PMC4811503, “A method for quantification of exportin-1 (XPO1) occupancy by Selective Inhibitor of Nuclear Export (SINE) compounds” (Oncotarget, 2015)
Where two headings read alike, the source gives them in different places. Each block holds one compound with its values, some of them ahead of it.

Columns and labels:
[1] = test system: nuclear export of the XPO1 cargo protein Rev-GFP in stably transfected U2OS cells; test: Rev-GFP assay (nuclear retention of Rev-GFP); type: cell-based; details: Homo sapiens
Description: (§1) For this assay we utilized biotinylated LMB (b-LMB) as a tool compound to quantify the amount of XPO1 bound by SINE compounds (Figure 1). b-LMB was synthesized by coupling a biotin tag to LMB. We compared the inhibition of nuclear export and the cytotoxicity of b-LMB to that of the unmodified LMB. […] We then quantified the effects of these compounds on cell death in several cancer cell lines using an MTT cytotoxicity assay (Table 2).
For the typical Rev-GFP assay, U2OS cells stably expressing Rev-GFP [42] were cultured in 96 well plates at 7,500 - 15,000 cells/well. […] After fixation cells were stained with DAPI (Invitrogen) for 10 minutes at room temperature. Cells were imaged with a Nikon fluorescent microscope at 10X magnification and intensity of the GFP and nuclear area were measured and recorded. Cells were scored as either GFP nuclear positive or negative. Number of positive cells were divided by total number of cells in order to calculate percentage of cells with nuclear GFP per well.

[2] = MTT assay of unmodified and biotinylated SINE compounds (cell line not given); type: cell-based; details: for IC50: cell line not named; for fold less cytotoxic compared to unmodified counterpart: ratio of MTT IC50 values
[3] = target: XPO1 (Homo sapiens, UniProt O14980); test: XPO1 occupancy assay in cultured cell lines (biotinylated probe pull-down, Simple Western); type: cell-based; design: Cells were collected, washed with PBS, and lysed with RIPA Buffer; endogenous in cells; host or cells: MM.1S; details: MM.1S cells
Sequence of XPO1 (O14980 whole entry): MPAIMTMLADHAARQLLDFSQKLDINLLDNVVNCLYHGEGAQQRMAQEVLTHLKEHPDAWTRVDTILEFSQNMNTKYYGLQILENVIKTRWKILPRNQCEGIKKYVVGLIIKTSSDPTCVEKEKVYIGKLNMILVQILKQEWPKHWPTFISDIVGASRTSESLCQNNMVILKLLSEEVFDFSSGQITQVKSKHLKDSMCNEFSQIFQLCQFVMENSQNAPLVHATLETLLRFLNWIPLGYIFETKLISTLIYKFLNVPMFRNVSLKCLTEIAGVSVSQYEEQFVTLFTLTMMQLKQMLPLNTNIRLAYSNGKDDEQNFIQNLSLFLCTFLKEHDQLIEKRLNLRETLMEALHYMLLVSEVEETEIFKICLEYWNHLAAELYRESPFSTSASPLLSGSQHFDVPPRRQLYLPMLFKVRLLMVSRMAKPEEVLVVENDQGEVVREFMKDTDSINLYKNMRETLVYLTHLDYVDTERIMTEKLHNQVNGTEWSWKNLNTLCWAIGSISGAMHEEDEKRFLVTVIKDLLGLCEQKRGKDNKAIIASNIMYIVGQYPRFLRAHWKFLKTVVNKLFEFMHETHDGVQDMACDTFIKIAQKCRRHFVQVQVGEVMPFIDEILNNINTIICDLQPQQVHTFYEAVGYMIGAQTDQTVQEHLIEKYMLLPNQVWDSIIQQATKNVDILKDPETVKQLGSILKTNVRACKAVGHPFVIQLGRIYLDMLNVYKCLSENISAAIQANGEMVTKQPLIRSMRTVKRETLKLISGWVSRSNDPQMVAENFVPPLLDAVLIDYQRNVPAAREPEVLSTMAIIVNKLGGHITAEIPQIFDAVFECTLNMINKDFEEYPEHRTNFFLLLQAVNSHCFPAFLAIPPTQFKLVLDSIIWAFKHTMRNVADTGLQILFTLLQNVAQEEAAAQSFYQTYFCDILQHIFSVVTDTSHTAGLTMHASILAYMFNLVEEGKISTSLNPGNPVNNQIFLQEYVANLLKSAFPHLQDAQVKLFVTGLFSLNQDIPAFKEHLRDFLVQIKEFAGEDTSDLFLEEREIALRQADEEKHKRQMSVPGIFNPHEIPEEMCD
Procedure: b-LMB was tested for the ability to bind XPO1 protein. First, a dose-response curve was generated by exposing MM.1S cells to increasing concentrations of b-LMB (0 – 500 nM) for 1.5 hours in culture. The cells were then collected, lysed, and a portion of the lysate (input) was reserved prior to incubating the remaining lysate with streptavidin-tagged beads overnight. After extensive washes, b-LMB bound XPO1 was eluted from the beads, and XPO1 from both input and bead eluate was detected and quantified by Simple Western on Peggy Sue. Simple Western allows for the chemiluminescent detection of proteins from small volumes of samples that are run through a matrix-filled capillary. The signal is detected by a CCD camera which generates a digital image and then reports quantitative results. […] The protein signals for XPO1 detected by Simple Western in Figure 2A were reported as mean peak areas and were used to compare levels of XPO1 present in each sample to produce a graphical representation of the ratio of free XPO1 detected at each concentration of b-LMB (Figure 2B). “Ratio of bound XPO1” is defined as the ratio of the mean peak area of b-LMB bound XPO1 detected in the eluate compared to the mean peak area of all XPO1 detected in the input lysate, while “free-fraction” refers to the amount of XPO1 not occupied by SINE compound, as described later.
The cells were then collected and processed for the XPO1 occupancy assay. […] For these assays, the “ratio of free-fraction XPO1” is calculated by dividing the mean peak areas of XPO1 occupied by b-LMB (from the eluate) by the total amount of XPO1 (from the input).
Cells were collected, washed with PBS, and lysed with RIPA Buffer (Thermo Scientific) with protease inhibitors [Complete Ultra Tablets, Mini, EDTA-free, Easy pack (Roche), PhosStop Easy (Roche)]. A portion of the lysate was reserved (input) while the rest was added to washed Dynabeads MyOne Streptavidin T1 (Invitrogen) with RIPA Buffer. Samples were incubated overnight with constant rotation at 4°C. Beads were then washed 5 times with modified RIPA (150 mM NaCl, 50 mM Tris, 1% NP-40, 0.1% Na deoxycholate, 1 mM EDTA, pH 7.8). The reserved portion of lysates (input) and the beads were each mixed with Protein Simple buffer (Protein Simple), DTT (Invitrogen), and fluorescent standards (Protein Simple), then boiled at 95°C for 10 min. Eluates and inputs were analyzed using a capillary western method (Peggy Sue; Protein Simple) with the following primary antibodies: XPO1 (Santa Cruz) and β-actin (Santa Cruz). Capillary westerns were performed by SBH Sciences (Natick, MA). Peak areas corresponding to the protein molecular weight of XPO1 and actin were compared for sample inputs, while the ratio of XPO1 peak areas in eluate to input (ratio of bound or free-fraction XPO1) versus compound concentration were used in XLFit model 205 to calculate 50% and 90% occupancy curves.

[4] = test system: HCT-116; test: MTT cytotoxicity assay; type: cell-based; details: Homo sapiens, 72 hours, read-out: IC50
[5] = test system: MM.1S; test: MTT cytotoxicity assay; type: cell-based; details: Homo sapiens, MM1.S, 72 hours, read-out: IC50
[6] = test system: AML3; test: MTT cytotoxicity assay; type: cell-based; details: 72 hours, read-out: IC50
[7] = test system: AML2; test: MTT cytotoxicity assay; type: cell-based; details: 72 hours, read-out: IC50
[8] = test system: several cancer cell lines; details: human, 72 h
Procedure: as §1
Cells were seeded in 96-well flat-bottom culture plates. […] Triplicate wells per concentration were used to calculate IC50 curves. The CellTiter-Fluor Cell Viability Assay (Promega) was performed as instructed by the manufacturer. The whole procedure was repeated three times. The inhibitory rate of cell growth was calculated using the formula: % growth inhibition = (1− OD extract treated)/OD negative control × 100).

[9] = read-out: Rev GFP IC50 (nM), U2OS Rev-GFP cells, unmodified and biotinylated SINE compounds
[10] = read-out: Rev-GFP IC50 (μM), U2OS Rev-GFP cells
[11] = SINE compound 1 hour, then 1 nM b-LMB […]
[12] = SINE compound 1 hour, then 1 nM b-LMB […], read-out: Avg 50% Occupancy
[13] = biotinylated SINE compound alone, direct binding
[14] = biotinylated SINE compound alone, direct binding, read-out: 50% Occupancy
[15] = 4 h, read-out: Rev-GFP (nM), U2OS cells stably expressing Rev-GFP, 4 hours treatment

Compound: O=C(/C=C\n1cnc(-c2cc(C(F)(F)F)cc(C(F)(F)F)c2)n1)N1CC(F)(F)C1 [KPT-276]
IC50 [1, 9]: 53 nM | IC50 [2]: 18 nM

XPO1 binding in the occupancy assay (negative control) ([3]; 0 – 10 μM, then 1 nM b-LMB, data not shown): no XPO1 bound
Compound: COc1cc(-c2ncn(/C=C/C(=O)OC(C)C)n2)cc(C(F)(F)F)c1 [KPT-301]

Compound: CC(C)(C)C(=O)NNC(=O)/C=C\n1cnc(-c2cc(C(F)(F)F)cc(C(F)(F)F)c2)n1 [KPT-350]
IC50 [1, 10]: 170 nM | Avg 90% Occupancy (μM) [3, 11]: 6.45 +/− 3.36 (n = 3) μM | EC50 [3, 12]: 630 nM

Compound: NC(=O)/C(=C/n1cnc(-c2cc(C(F)(F)F)cc(C(F)(F)F)c2)n1)c1cncnc1 [KPT-8602]
IC50 [1, 9]: 42 nM | IC50 [1, 10]: 40 nM | Avg 90% Occupancy (μM) [3, 11]: 1.1 +/− 1.03 (n = 2) μM | 90% Occupancy ([3]; followed by 0.1 μM KPT-9511 as probe): 0.11 µM | IC50 [2]: 19 nM

Compound: O=C1N[C@H]2[C@H](CS[C@H]2CCCCC(=O)Oc2cc(-c3ncn(/C=C\C(=O)N4CC(F)(F)C4)n3)cc(C(F)(F)F)c2)N1 [KPT-9058]
IC50 [1, 9]: 961 nM | 90% Occupancy [3, 13]: 0.69 µM | EC50 [3, 14]: 120 nM | IC50 [2]: 110 nM | fold less cytotoxic compared to unmodified counterpart [2]: ~6 fold

Compound: NC(=O)/C(=C/n1cnc(-c2cc(OC(=O)CCCC[C@@H]3SC[C@@H]4NC(=O)N[C@@H]43)cc(C(F)(F)F)c2)n1)c1cncnc1 [KPT-9511]
IC50 [1, 9]: 230 nM | 90% Occupancy [3, 13]: 0.61 µM | EC50 [3, 14]: 180 nM | IC50 [2]: 280 nM | fold less cytotoxic compared to unmodified counterpart [2]: ~15 fold

Compound: CCC(=C/[C@H](C)C/C=C/C(C)=C/[C@@H](C)C(=O)[C@@H](C)[C@H](O)[C@@H](C)C/C(C)=C/C(=O)O)/C=C/[C@@H]1OC(=O)C=C[C@@H]1C [LMB, leptomycin B, reference compound]
IC50 [1, 15]: 0.16 nM | IC50 [4]: 0.19 nM | IC50 [5]: 0.46 nM | IC50 [6]: 0.68 nM | IC50 [7]: 0.39 nM

Compound: O=C(/C=C\n1cnc(-c2cc(C(F)(F)F)cc(C(F)(F)F)c2)n1)NNc1ccccn1 [Verdinexor, verdinexor]
IC50 [1, 10]: 10 nM | Avg 90% Occupancy (μM) [3, 11]: 0.34 +/− 0.08 (n = 3) μM | EC50 [3, 12]: 40 nM

Compound: CCC(C=CC1OC(=O)C=CC1C)=CC(C)CC=CC(C)=CC(C)C(=O)C(C)C(O)C(C)CC(C)=CC(=O)NCCCCCCNC(=O)CCCCC1SCC2NC(=O)NC21 (stereo not shown) [b-LMB, reference compound]
IC50 [1, 15]: 0.11 nM | IC50 [4]: 6 nM | fold less cytotoxic than unmodified LMB [8]: 6 – 30 fold | IC50 [5]: 3.1 nM | amount of b-LMB necessary to occupy 90% of XPO1 ([3]; b-LMB […], direct binding, n = 3): 2.53 ± 1.72 nM | EC50 ([3]; b-LMB […], direct binding, n = 3, read-out: amount of b-LMB necessary to occupy 50% of XPO1): 0.27 nM | IC50 [6]: 4.68 nM | IC50 [7]: 2.53 nM
